From patent publication US9211310B2, “Use of a Chinese medicine composition in preparing medicaments for treating secondary prevention of myocardial infarction” (TASLY PHARMACEUTICAL GROUP CO., LTD, priority 2010, dated 2015)

Tested on: patients after acute myocardial infarction
Assay: Life quality, Seattle Angina Questionnaire (SAQ), same clinical trial
Type: in vivo, human
Excerpt: 3508 patients who were in accordance with the diagnostic standards of AMI for 28 days to 2 years and differentiated as Qi deficiency and blood stagnation syndrome by TCM were studied. 0.5 g Chinese medicine composition prepared by the method of EXAMPLE 1 (Coded as QSYQ) was administrated half an hour after meal, 3 times per day.
There were 19 questions in the Seattle angina questionnaire (SAQ), including 5 parts: physical limitation (PL), anginal stability (AS), anginal frequency (AF), treatment satisfaction (TS) and disease perception (DP). After being given necessary explanation by doctors, the questions were answered independently by patients.
They included the overall survival time, angina pectoris score, TCM symptom score and life quality score, where angina pectoris score, TCM symptom score and life quality score were evaluated at randomization, in 1st, 3rd, 6th, 9th, 12th month after treatment and 18th month after follow-up.
All evaluation results of SAQ were described during the period of observation, and Wilcoxon rank sum test was used for inter-group comparison.
The evaluation results in the SAQ were depicted in different observations, and inter-group comparison was tested by Wilcoxon Rank-sum test.

Question: Which results are given for `CC(=O)Oc1ccccc1C(=O)O` [Control group, aspirine]?
Answer: SAQ Question 1-4: Slightly limited, percent of patients (9 months after treatment, PP): (32.89%); SAQ Question 1-5: Mildly limited, number of patients (9 months after treatment, PP): 226; SAQ Question 1-5: Mildly limited, percent of patients (9 months after treatment, PP): (15.75%); SAQ Question 1-5: Moderately limited, number of patients (9 months after treatment, PP): 77; SAQ Question 1-5: Moderately limited, percent of patients (9 months after treatment, PP): (5.37%); SAQ Question 1-5: Not limited, number of patients (9 months after treatment, PP): 705; SAQ Question 1-5: Not limited, percent of patients (9 months after treatment, PP): (49.13%); SAQ Question 1-5: Other reasons, number of patients (9 months after treatment, PP): 10; SAQ Question 1-5: Other reasons, percent of patients (9 months after treatment, PP): (0.70%); SAQ Question 1-5: Severely limited, number of patients (9 months after treatment, PP): 9; SAQ Question 1-5: Severely limited, percent of patients (9 months after treatment, PP): (0.63%); SAQ Question 1-5: Slightly limited, number of patients (9 months after treatment, PP): 408; SAQ Question 1-5: Slightly limited, percent of patients (9 months after treatment, PP): (28.43%); SAQ Question 1-9: Mildly limited, % of cases (9 months after treatment, PP): (19.70%); SAQ Question 1-9: Mildly limited, cases (9 months after treatment, PP): 275; SAQ Question 1-9: Moderately limited, % of cases (9 months after treatment, PP): (20.92%); SAQ Question 1-9: Moderately limited, cases (9 months after treatment, PP): 292; SAQ Question 1-9: Not limited, % of cases (9 months after treatment, PP): (4.23%); SAQ Question 1-9: Not limited, cases (9 months after treatment, PP): 59; SAQ Question 1-9: Other reasons, % of cases (9 months after treatment, PP): (5.80%); SAQ Question 1-9: Other reasons, cases (9 months after treatment, PP): 81; SAQ Question 1-9: Severely limited, % of cases (9 months after treatment, PP): (32.38%); SAQ Question 1-9: Severely limited, cases (9 months after treatment, PP): 452; SAQ Question 1-9: Slightly limited, % of cases (9 months after treatment, PP): (16.98%); SAQ Question 1-9: Slightly limited, cases (9 months after treatment, PP): 237; SAQ 2nd question: 6, % of cases (12 months after treatment, FAS): (0.00%); SAQ 2nd question: 6, cases (12 months after treatment, FAS): 0; SAQ 2nd question: Clearly increased, % of cases (12 months after treatment, FAS): (1.32%); SAQ 2nd question: Clearly increased, cases (12 months after treatment, FAS): 23; SAQ 2nd question: Clearly reduced, % of cases (12 months after treatment, FAS): (27.55%); SAQ 2nd question: Clearly reduced, cases (12 months after treatment, FAS): 480; SAQ 2nd question: Same, % of cases (12 months after treatment, FAS): (37.83%); SAQ 2nd question: Same, cases (12 months after treatment, FAS): 659; SAQ 2nd question: Slightly increased, % of cases (12 months after treatment, FAS): (3.16%); SAQ 2nd question: Slightly increased, cases (12 months after treatment, FAS): 55; SAQ 2nd question: Slightly reduced, % of cases (12 months after treatment, FAS): (30.14%); SAQ 2nd question: Slightly reduced, cases (12 months after treatment, FAS): 525; SAQ 3rd question: 1-2 times per week, % of cases (12 months after treatment, FAS): (30.14%); SAQ 3rd question: 1-2 times per week, cases (12 months after treatment, FAS): 525; SAQ 3rd question: 1-3 times per day, % of cases (12 months after treatment, FAS): (3.16%); SAQ 3rd question: 1-3 times per day, cases (12 months after treatment, FAS): 55; SAQ 3rd question: <1 time per week, % of cases (12 months after treatment, FAS): (27.55%); SAQ 3rd question: <1 time per week, cases (12 months after treatment, FAS): 480; SAQ 3rd question: No onset, % of cases (12 months after treatment, FAS): (0.00%); SAQ 3rd question: No onset, cases (12 months after treatment, FAS): 0; SAQ 3rd question: ≧3 times per week, % of cases (12 months after treatment, FAS): (37.83%); SAQ 3rd question: ≧3 times per week, cases (12 months after treatment, FAS): 659; SAQ 3rd question: ≧4 times per day, % of cases (12 months after treatment, FAS): (1.32%); SAQ 3rd question: ≧4 times per day, cases (12 months after treatment, FAS): 23; SAQ Question 1-3: Mildly limited, number of patients (12 months after treatment, FAS): 54; SAQ Question 1-3: Mildly limited, percent of patients (12 months after treatment, FAS): (3.10%); SAQ Question 1-3: Moderately limited, number of patients (12 months after treatment, FAS): 11; SAQ Question 1-3: Moderately limited, percent of patients (12 months after treatment, FAS): (0.63%); SAQ Question 1-3: Not limited, number of patients (12 months after treatment, FAS): 1471; SAQ Question 1-3: Not limited, percent of patients (12 months after treatment, FAS): (84.35%); SAQ Question 1-3: Other reasons, number of patients (12 months after treatment, FAS): 10; SAQ Question 1-3: Other reasons, percent of patients (12 months after treatment, FAS): (0.57%); SAQ Question 1-3: Severely limited, number of patients (12 months after treatment, FAS): 2; SAQ Question 1-3: Severely limited, percent of patients (12 months after treatment, FAS): (0.11%); SAQ Question 1-3: Slightly limited, number of patients (12 months after treatment, FAS): 196; SAQ Question 1-3: Slightly limited, percent of patients (12 months after treatment, FAS): (11.24%); SAQ Question 1-4: Mildly limited, number of patients (12 months after treatment, FAS): 236; SAQ Question 1-4: Mildly limited, percent of patients (12 months after treatment, FAS): (13.53%); SAQ Question 1-4: Moderately limited, number of patients (12 months after treatment, FAS): 66; SAQ Question 1-4: Moderately limited, percent of patients (12 months after treatment, FAS): (3.78%); SAQ Question 1-4: Not limited, number of patients (12 months after treatment, FAS): 853; SAQ Question 1-4: Not limited, percent of patients (12 months after treatment, FAS): (48.91%); SAQ Question 1-4: Other reasons, number of patients (12 months after treatment, FAS): 11; SAQ Question 1-4: Other reasons, percent of patients (12 months after treatment, FAS): (0.63%); SAQ Question 1-4: Severely limited, number of patients (12 months after treatment, FAS): 13; SAQ Question 1-4: Severely limited, percent of patients (12 months after treatment, FAS): (0.75%); SAQ Question 1-4: Slightly limited, number of patients (12 months after treatment, FAS): 565; SAQ Question 1-4: Slightly limited, percent of patients (12 months after treatment, FAS): (32.40%); SAQ Question 1-5: Mildly limited, number of patients (12 months after treatment, FAS): 260; SAQ Question 1-5: Mildly limited, percent of patients (12 months after treatment, FAS): (14.92%); SAQ Question 1-5: Moderately limited, number of patients (12 months after treatment, FAS): 79; SAQ Question 1-5: Moderately limited, percent of patients (12 months after treatment, FAS): (4.53%)
